Like-named read-outs stand apart in the source and are kept apart here.
Key:
Assay in all cases: HotSpot kinase profiling
Format in all cases: biochemical
SNARK/NUAK2 = target: T1, SNARK/NUAK2 (Homo sapiens, UniProt Q9H093)
T1 construct: purchased Reaction Biology Corp
T1 sequence (Q9H093 1-628): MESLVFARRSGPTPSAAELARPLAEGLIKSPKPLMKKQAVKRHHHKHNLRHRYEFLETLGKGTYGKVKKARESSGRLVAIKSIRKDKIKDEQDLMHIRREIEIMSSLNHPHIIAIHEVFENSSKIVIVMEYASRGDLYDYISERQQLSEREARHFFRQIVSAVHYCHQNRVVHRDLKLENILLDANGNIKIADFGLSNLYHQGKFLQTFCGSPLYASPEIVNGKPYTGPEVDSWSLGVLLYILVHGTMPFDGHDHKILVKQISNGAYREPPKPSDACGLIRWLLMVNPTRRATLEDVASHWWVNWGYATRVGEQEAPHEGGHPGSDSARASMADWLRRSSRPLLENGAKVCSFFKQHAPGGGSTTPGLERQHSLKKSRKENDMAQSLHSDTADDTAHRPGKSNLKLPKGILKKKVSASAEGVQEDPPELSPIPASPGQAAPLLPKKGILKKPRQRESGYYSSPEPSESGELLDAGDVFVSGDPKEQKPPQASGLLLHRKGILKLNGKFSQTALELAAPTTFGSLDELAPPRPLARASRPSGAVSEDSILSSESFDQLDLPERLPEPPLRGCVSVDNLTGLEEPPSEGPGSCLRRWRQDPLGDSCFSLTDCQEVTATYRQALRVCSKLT
Method in brief: (§1)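 Percent inhibition, averaged when run more than once and referenced to a DMSO negative control, came from a radioactive filter-binding readout on P81 paper. Reactions of kinase with freshly made substrate and cofactors ran for 2 h at room temperature.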

HPK1/MAP4K1 = target: T2, HPK1/MAP4K1 (Homo sapiens, UniProt Q92918)
T2 construct: purchased Reaction Biology Corp
T2 sequence (Q92918 whole entry): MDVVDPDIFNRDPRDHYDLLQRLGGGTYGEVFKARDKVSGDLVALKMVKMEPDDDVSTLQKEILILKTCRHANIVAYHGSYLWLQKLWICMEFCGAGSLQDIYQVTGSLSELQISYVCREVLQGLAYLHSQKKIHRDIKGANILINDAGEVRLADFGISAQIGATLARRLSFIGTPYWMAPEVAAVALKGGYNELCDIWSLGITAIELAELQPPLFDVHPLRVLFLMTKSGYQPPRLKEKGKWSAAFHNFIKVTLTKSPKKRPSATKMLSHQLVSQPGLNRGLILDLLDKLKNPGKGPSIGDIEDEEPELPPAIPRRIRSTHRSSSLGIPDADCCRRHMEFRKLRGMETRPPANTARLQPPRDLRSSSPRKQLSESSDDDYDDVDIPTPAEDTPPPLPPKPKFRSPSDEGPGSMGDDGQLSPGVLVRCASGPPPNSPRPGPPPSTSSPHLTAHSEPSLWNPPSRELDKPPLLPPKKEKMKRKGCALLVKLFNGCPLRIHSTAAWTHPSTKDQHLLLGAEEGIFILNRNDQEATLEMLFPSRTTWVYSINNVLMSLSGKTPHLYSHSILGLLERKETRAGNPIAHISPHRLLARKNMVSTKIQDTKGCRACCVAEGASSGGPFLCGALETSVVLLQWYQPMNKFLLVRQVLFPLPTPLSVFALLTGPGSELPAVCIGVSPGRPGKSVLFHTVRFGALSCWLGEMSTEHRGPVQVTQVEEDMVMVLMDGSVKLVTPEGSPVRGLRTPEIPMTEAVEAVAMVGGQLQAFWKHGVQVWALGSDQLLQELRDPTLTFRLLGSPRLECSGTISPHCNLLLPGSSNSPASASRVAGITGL
Method in brief: as §1

PKCa = target: T3, PKCa (Homo sapiens, UniProt P17252)
T3 construct: purchased Reaction Biology Corp
Method in brief: as §1

MLK2/MAP3K10 = target: T4, MLK2/MAP3K10 (Homo sapiens, UniProt Q02779)
T4 construct: purchased Reaction Biology Corp
T4 sequence (Q02779 whole entry): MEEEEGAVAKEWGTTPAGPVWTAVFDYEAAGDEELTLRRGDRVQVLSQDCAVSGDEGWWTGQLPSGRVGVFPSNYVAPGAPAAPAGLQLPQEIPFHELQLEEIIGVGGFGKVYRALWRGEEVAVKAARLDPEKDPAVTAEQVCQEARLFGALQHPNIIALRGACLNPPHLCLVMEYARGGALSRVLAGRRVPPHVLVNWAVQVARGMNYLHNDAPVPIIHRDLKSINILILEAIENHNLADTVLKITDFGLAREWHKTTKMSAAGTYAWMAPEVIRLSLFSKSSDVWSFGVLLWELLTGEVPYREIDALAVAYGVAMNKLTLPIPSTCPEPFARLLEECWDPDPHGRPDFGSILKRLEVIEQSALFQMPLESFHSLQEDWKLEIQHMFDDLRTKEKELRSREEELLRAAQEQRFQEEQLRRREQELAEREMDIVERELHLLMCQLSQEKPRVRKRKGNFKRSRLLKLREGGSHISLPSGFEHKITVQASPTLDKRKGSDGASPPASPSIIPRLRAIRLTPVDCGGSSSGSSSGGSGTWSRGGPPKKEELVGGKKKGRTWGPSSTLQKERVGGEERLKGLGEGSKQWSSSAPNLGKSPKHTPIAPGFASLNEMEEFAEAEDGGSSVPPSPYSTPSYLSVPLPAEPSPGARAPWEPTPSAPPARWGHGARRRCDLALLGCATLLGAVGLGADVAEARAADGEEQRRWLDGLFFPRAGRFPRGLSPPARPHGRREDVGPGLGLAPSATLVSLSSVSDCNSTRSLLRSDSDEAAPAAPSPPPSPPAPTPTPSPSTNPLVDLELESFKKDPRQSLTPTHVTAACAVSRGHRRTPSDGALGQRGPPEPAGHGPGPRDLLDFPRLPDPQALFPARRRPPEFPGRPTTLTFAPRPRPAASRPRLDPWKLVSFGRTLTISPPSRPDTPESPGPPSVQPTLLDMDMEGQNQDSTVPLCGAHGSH
Method in brief: as §1

PYK2 = target: T5, PYK2 (Homo sapiens, UniProt Q14289)
T5 construct: purchased Reaction Biology Corp
T5 sequence (Q14289 whole entry): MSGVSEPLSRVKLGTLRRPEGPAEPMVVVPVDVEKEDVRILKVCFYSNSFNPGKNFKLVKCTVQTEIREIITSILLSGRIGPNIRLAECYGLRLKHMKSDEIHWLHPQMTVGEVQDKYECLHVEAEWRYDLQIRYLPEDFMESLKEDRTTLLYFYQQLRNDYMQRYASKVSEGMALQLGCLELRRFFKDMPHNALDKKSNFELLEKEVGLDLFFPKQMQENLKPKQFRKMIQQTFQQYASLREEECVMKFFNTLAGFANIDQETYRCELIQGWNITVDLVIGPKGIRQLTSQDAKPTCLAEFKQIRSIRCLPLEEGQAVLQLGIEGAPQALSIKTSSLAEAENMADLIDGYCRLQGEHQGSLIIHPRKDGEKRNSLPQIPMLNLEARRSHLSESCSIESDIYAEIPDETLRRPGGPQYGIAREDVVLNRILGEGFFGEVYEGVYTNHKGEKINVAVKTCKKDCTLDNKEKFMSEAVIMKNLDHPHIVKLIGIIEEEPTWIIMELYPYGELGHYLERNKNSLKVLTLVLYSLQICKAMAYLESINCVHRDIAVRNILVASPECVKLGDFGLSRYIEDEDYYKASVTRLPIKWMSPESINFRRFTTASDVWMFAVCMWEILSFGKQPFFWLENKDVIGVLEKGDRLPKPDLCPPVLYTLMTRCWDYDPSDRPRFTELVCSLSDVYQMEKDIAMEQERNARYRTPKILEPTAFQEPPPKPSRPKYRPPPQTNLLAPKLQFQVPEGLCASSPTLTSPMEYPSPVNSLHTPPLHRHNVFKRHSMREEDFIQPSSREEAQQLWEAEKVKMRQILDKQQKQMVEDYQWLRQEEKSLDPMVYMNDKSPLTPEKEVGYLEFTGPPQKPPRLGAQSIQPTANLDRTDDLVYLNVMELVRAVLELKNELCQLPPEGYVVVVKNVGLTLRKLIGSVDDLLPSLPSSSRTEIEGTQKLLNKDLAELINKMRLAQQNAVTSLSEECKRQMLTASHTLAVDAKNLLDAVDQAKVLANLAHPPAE
Method in brief: as §1

DCAMKL1 = target: T6, DCAMKL1 (Homo sapiens, UniProt O15075)
T6 construct: purchased Reaction Biology Corp
T6 sequence (O15075 1-740): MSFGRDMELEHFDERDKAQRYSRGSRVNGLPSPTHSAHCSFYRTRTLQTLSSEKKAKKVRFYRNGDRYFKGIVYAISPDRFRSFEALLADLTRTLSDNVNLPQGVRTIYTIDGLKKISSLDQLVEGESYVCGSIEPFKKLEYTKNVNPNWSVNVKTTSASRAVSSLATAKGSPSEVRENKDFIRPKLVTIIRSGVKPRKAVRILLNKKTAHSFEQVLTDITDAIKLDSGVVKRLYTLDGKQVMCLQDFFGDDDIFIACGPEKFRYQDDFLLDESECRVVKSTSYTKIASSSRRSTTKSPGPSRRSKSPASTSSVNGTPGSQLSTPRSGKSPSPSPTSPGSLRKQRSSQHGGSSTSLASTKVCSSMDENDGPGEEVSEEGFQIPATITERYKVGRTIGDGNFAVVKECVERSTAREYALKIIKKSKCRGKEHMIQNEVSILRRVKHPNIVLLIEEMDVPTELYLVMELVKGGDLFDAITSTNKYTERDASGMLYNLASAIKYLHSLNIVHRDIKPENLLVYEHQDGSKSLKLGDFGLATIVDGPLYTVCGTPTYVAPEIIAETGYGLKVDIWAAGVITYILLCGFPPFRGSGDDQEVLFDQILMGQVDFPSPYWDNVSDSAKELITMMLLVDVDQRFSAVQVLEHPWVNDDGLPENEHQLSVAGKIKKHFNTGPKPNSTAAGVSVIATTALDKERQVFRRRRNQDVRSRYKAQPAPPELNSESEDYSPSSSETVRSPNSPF
Method in brief: as §1

ACK1 = target: T7, ACK1 (Homo sapiens, UniProt Q07912)
T7 construct: purchased Reaction Biology Corp
T7 sequence (Q07912 whole entry): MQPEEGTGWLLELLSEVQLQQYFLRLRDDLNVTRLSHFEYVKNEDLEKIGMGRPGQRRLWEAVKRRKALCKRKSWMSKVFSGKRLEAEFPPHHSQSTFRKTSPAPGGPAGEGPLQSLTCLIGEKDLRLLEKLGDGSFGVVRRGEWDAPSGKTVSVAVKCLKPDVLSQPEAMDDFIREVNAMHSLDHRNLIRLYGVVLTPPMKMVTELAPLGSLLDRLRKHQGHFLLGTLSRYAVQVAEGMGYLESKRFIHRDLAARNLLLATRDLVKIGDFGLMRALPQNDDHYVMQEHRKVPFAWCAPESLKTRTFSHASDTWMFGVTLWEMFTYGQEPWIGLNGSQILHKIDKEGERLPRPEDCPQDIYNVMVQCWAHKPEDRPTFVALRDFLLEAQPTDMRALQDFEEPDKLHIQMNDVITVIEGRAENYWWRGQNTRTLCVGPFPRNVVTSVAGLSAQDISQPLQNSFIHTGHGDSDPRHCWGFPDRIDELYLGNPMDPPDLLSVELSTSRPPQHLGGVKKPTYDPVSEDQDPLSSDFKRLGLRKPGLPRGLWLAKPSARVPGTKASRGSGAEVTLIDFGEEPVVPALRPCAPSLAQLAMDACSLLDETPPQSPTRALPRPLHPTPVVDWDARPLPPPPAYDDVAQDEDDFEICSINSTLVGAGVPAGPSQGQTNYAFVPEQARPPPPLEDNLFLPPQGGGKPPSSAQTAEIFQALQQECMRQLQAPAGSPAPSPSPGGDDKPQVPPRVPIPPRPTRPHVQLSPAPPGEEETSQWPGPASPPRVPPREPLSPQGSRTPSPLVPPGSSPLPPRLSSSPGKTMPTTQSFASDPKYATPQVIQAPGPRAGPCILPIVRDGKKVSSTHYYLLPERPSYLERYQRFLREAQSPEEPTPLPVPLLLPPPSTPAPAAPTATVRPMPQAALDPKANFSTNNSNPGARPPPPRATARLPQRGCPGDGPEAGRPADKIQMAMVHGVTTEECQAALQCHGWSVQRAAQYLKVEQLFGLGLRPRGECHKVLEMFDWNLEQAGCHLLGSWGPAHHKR
Method in brief: as §1

[1] = read-out: % Enzyme Activity (relative to DMSO controls) Run 1
[2] = read-out: % Enzyme Activity (relative to DMSO controls) Run 2

SMILES: C=CC(=O)Nc1cccc(Nc2nc(Nc3ccc(OCCOC)c(F)c3)ncc2F)c1 [Compound 2]
- inhibition at 3 µM (SNARK/NUAK2): 15.7%
- remaining activity at 3 µM (SNARK/NUAK2; [1]): 83.7%
- remaining activity at 3 µM (SNARK/NUAK2; [2]): 84.9%
- inhibition at 3 µM (HPK1/MAP4K1): 12.9%
- remaining activity at 3 µM (HPK1/MAP4K1; [1]): 85.8%
- remaining activity at 3 µM (HPK1/MAP4K1; [2]): 88.4%
- inhibition at 3 µM (PKCa): 11.4%
- remaining activity at 3 µM (PKCa; [1]): 88.4%
- remaining activity at 3 µM (PKCa; [2]): 88.8%
- inhibition at 3 µM (MLK2/MAP3K10): 54.6%
- remaining activity at 3 µM (MLK2/MAP3K10; [1]): 45.4%
- remaining activity at 3 µM (MLK2/MAP3K10; [2]): 45.3%
- inhibition at 3 µM (PYK2): 29.6%
- remaining activity at 3 µM (PYK2; [1]): 70.6%
- remaining activity at 3 µM (PYK2; [2]): 70.1%
- inhibition at 3 µM (DCAMKL1): 2.02%
- remaining activity at 3 µM (DCAMKL1; [1]): 98.4%
- remaining activity at 3 µM (DCAMKL1; [2]): 97.5%
- inhibition at 3 µM (ACK1): 77.5%
- remaining activity at 3 µM (ACK1; [1]): 22.6%
- remaining activity at 3 µM (ACK1; [2]): 22.5%

Source: patent US9492471B2, “Methods of treating a disease or disorder associated with Bruton'S Tyrosine Kinase” (Celgene Avilomics Research, Inc., priority 2013, dated 2016)
